IC50 data for 21 compounds are collected here from patent US20230143612A1 (Arbutus Biopharma Corporation, priority 2020, published 2023).

For the experiment, the target named is PD-L1 His protein / PD-1 Fc protein (Homo sapiens, UniProt Q9NZQ7). Briefly: HTRF Assay (PD-1/PD-L1 interaction). In kind it is binding. To be noted: PD-L1 His 6 nM, PD-1 Fc 6 nM. The protocol:
PD-L1 His protein was prepared and added at the final concentration of 6 nM in the White opaque 384 well plate (Corning cat #3824BC). PD-L1 small molecule inhibitors were diluted by 3-fold starting from 20 μM and a final concentration of 0.001 μM and added to the well. PD-1 Fc protein was added at the final concentration of 6 nM. PD-L1 His protein, PD-L1 small molecule inhibitors, and PD1 Fc proteins were added to the well in this order, with each 5 μl volume, and were incubated for 15 minutes at room temperature. PAb anti-Human IgG-XL665 (Cisbio, cat #61HFCXLA) and Mab anti-6HIS Tb cryptate Gold (Cisbio, cat #61HI2TLA) were mixed at 6.7 nM and 0.35 nM respectively, and total 5 μl volume of mixture was added to the well and incubated at room temperature for 1 hour. The plate was read using PerkinElmer Envision plate reader and data was analyzed by Prism 6 software.

Chain of PD-L1 His protein / PD-1 Fc protein (Q9NZQ7 19-238 limits assumed): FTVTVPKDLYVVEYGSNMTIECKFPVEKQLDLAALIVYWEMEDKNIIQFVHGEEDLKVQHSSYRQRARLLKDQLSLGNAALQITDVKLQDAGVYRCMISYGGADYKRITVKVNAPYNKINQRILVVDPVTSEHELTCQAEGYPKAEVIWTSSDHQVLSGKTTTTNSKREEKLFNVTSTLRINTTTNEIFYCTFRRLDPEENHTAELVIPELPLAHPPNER

By IC50 is commonly meant the concentration at which inhibition is half-maximal. Low readings indicate greater potency, high ones weaker potency. `COc1nc(-c2cccc(-c3cccc(-c4ccc5c(n4)N(C)CCC5NC[C@@H]4CCC(=O)N4)c3Cl)c2Cl)cnc1CNC[C@@H]1CCC(=O)N1` (mixture of isomers) [Example 56, (5S)-5-(((7-(2,2′-Dichloro-3′-(6-methoxy-5-(((((S)-5-oxopyrrolidin-2-yl)methyl)amino)methyl)pyrazin-2-yl)-[1,1′-biphenyl]-3-yl)-1-methyl-1,2,3,4-tetrahydro-1,8-naphthyridin-4-yl)amino)methyl)pyrrolidin-2-one] gave an IC50 of 0.7 nM.

For `Cc1c(-c2ccn3c(=O)c(CNC[C@@H]4CCC(=O)N4)cnc3c2)cccc1-c1cccc(-c2ccc3c(n2)N(C)CCC3NC[C@@H]2CCC(=O)N2)c1Cl` (mixture of isomers) [Example 68, 8-(2′-Chloro-2-methyl-3′-(8-methyl-5-((((S)-5-oxopyrrolidin-2-yl)methyl)amino)-5,6,7,8-tetrahydro-1,8-naphthyridin-2-yl)-[1,1′-biphenyl]-3-yl)-3-(((((S)-5-oxopyrrolidin-2-yl)methyl)amino)methyl)-4H-pyrido[1,2-a]pyrimidin-4-one], the IC50 turned out to be 11 nM.

For `COc1nc(-c2cccc(-c3cccc(-c4ccc5c(n4)N(C)CCC5NCc4cncc(F)c4)c3Cl)c2Cl)ccc1CNC[C@@H]1CCC(=O)N1` (mixture of isomers) [Example 91, (5S)-5-((((6-(2,2′-Dichloro-3′-(5-(((5-fluoropyridin-3-yl)methyl)amino)-8-methyl-5,6,7,8-tetrahydro-1,8-naphthyridin-2-yl)-[1,1′-biphenyl]-3-yl)-2-methoxypyridin-3-yl)methyl)amino)methyl)pyrrolidin-2-one], the IC50 amounted to 180 nM.

For `COc1nc(-c2cccc(-c3cccc(-c4ccn5c(=O)c(CNC[C@H]6C[C@H]6CO)cnc5c4)c3Cl)c2Cl)ccc1CNC[C@@H]1CCC(=O)N1` (racemic) [Example 225, 8-(2,2′-dichloro-3′-(6-methoxy-5-(((((S)-5-oxopyrrolidin-2-yl)methyl)-amino)-methyl)-pyridin-2-yl)-[1,1′-biphenyl]-3-yl)-3-(((((1S,2R)-2-(hydroxymethyl)-cyclopropyl)methyl)amino)methyl)-4H-pyrido[1,2-a]pyrimidin-4-one], the half-inhibitory concentration (IC50) worked out at 0.2 nM.

`COc1nc(-c2cccc(-c3cccc(-c4ccc5c(n4)CCCC5NC[C@@H]4CCC(=O)N4)c3Cl)c2Cl)ccc1CNC[C@@H]1CCC(=O)N1` (mixture of isomers) [Example 235, (5S)-5-((((6-(2,2′-Dichloro-3′-(5-((((S)-5-oxopyrrolidin-2-yl)methyl)amino)-5,6,7,8-tetrahydroquinolin-2-yl)-[1,1′-biphenyl]-3-yl)-2-methoxypyridin-3-yl)methyl)amino)methyl)pyrrolidin-2-one] yielded an IC50 of 1 nM.

`COc1nc(-c2cccc(-c3cccc(-c4ccn5c(=O)c(CNC[C@@H]6C[C@H]6CO)cnc5c4)c3Cl)c2Cl)ccc1CNC[C@@H]1CCC(=O)N1` (racemic) [Example 245, 8-(2,2′-dichloro-3′-(6-methoxy-5-(((((S)-5-oxopyrrolidin-2-yl)-methyl)amino)-methyl)-pyridin-2-yl)-[1,1′-biphenyl]-3-yl)-3-(((((1R,2R)-2-(hydroxymethyl)-cyclopropyl)methyl)amino)-methyl)-4H-pyrido[1,2-a]pyrimidin-4-one] had an IC50 of 2.1 nM.

`COc1nc(-c2cccc(-c3cccc(-c4ccc5c(n4)CCCC5NC[C@H](C)O)c3Cl)c2Cl)ccc1CNC[C@@H]1CCC(=O)N1` (mixture of isomers) [Example 390, (5S)-5-((((6-(2,2′-Dichloro-3′-(5-(((S)-2-hydroxypropyl)amino)-5,6,7,8-tetrahydroquinolin-2-yl)-[1,1′-biphenyl]-3-yl)-2-methoxypyridin-3-yl)methyl)amino)methyl)pyrrolidin-2-one]: the IC50 amounted to 6.5 nM.

As to `COc1nc(-c2cccc(-c3cccc(-c4cc5c(=O)n(C)c(CNCC6CC(F)(F)C(=O)N6)nn5c4)c3Cl)c2Cl)ccc1CNC[C@@H]1CCC(=O)N1` (mixture of isomers) [Example 450, 6-[2-Chloro-3-[2-chloro-3-[6-methoxy-5-[[[rac-(2S)-5-oxopyrrolidin-2-yl]methylamino]methyl]-2-pyridyl]phenyl]phenyl]-2-[[(4,4-difluoro-5-oxo-pyrrolidin-2-yl)methylamino]methyl]-3-methyl-pyrrolo[2,1-f][1,2,4]triazin-4-one], the IC50 is 12 nM.

The compound `COc1nc(-c2cccc(-c3cccc(-c4ccc5c(n4)N(C)CCC5NC[C@@H]4CCC(=O)N4)c3Cl)c2Cl)ccc1CNC[C@@H]1CCC(=O)N1` (single isomer, unassigned) [Example 52] returned an IC50 of 0.8 nM.

In turn, `COc1nc(-c2cccc(-c3cccc(-c4ccc5c(n4)N(C)CCC5NC[C@@H]4CCC(=O)N4)c3Cl)c2Cl)ccc1CNC[C@@H]1CCC(=O)N1` (single isomer, unassigned) [Example 53] had an IC50 of 1.7 nM.

`COc1nc(-c2cccc(-c3cccc(-c4ccn5c(=O)c(CNC6CC7(CCNC7=O)C6)cnc5c4)c3Cl)c2Cl)ccc1CNC[C@@H]1CCC(=O)N1` (single isomer, unassigned) [Example 249]: the half-maximal inhibitory concentration (IC50) was 0.6 nM. This IC50 lies about 2.8-fold lower than the previous one.

As for `COc1nc(-c2cccc(-c3cccc(-c4ccn5c(=O)c(CNC6CC7(CCNC7=O)C6)cnc5c4)c3Cl)c2Cl)ccc1CNC[C@@H]1CCC(=O)N1` (single isomer, unassigned) [Example 250], inhibition was half-maximal at 1 nM (IC50).

Compound `COc1nc(-c2cccc(-c3cccc(-c4ccn5c(=O)c(CNC6CC7(CCNC7=O)C6)cnc5c4)c3Cl)c2Cl)ccc1CNC[C@@H]1CCC(=O)N1` (single isomer, unassigned) [Example 251] displayed an IC50 of 8.9 nM.

For the compound `Cc1c(COc2cc(OCc3cncc(C(N)=O)c3)c(CNCCO)cc2Cl)cccc1-c1cccc(-c2ccn3c(=O)c(CNCCO)cnc3c2)c1` [Example 1, 5-((4-Chloro-2-(((2-hydroxyethyl)amino)methyl)-5-((3′-(3-(((2-hydroxyethyl)amino)methyl)-4-oxo-4H-pyrido[1,2-a]pyrimidin-8-yl)-2-methyl-[1,1′-biphenyl]-3-yl)methoxy)phenoxy)methyl)nicotinamide], the midpoint of inhibition, the IC50, lay at 2.8 nM. Compared with the last compound, the IC50 is about 3.2-fold lower.

`Cc1c(NC(=O)c2ccc(CNCCO)cn2)cccc1-c1cccc(-c2ccn3c(=O)c(CNCCO)cnc3c2)c1` [Example 2, 5-(((2-Hydroxyethyl)amino)methyl)-N-(3′-(3-(((2-hydroxyethyl)amino)methyl)-4-oxo-4H-pyrido[1,2-a]pyrimidin-8-yl)-2-methyl-[1,1′-biphenyl]-3-yl)picolinamide] had an IC50 of 79 nM. This IC50 lies about 28-fold higher than the previous one.

Compound `Cc1c(COc2cc(OCc3cncc(C#N)c3)c(CNCCO)cc2Cl)cccc1-c1cccc(-c2ccn3c(=O)c(CNCCO)cnc3c2)c1C` [Example 3, 5-((4-Chloro-2-(((2-hydroxyethyl)amino)methyl)-5-((3′-(3-(((2-hydroxyethyl)amino)methyl)-4-oxo-4H-pyrido[1,2-a]pyrimidin-8-yl)-2,2′-dimethyl-[1,1′-biphenyl]-3-yl)methoxy)phenoxy)methyl)nicotinonitrile] yielded an IC50 of 1.2 nM. This IC50 is about 66-fold lower than that of the compound before.

As to `Cc1c(COc2cc(OCc3cncc(C#N)c3)c(CNCCO)cc2Cl)cccc1-c1cccc(-c2ccn3c(=O)c(CNCCO)cnc3c2)c1` [Example 4, 5-((4-Chloro-2-(((2-hydroxyethyl)amino)methyl)-5-((3′-(3-(((2-hydroxyethyl)amino)methyl)-4-oxo-4H-pyrido[1,2-a]pyrimidin-8-yl)-2-methyl-[1,1′-biphenyl]-3-yl)methoxy)phenoxy)methyl)nicotinonitrile], 2 nM corresponded to half-maximal inhibition (IC50).

In turn, `Cc1c(COc2cc(OCc3cncc(C#N)c3)c(CNCCO)cc2Cl)cccc1-c1cccc(-n2cnc3cc(CNCCO)ccc3c2=O)c1` [Example 5, 5-((4-Chloro-2-(((2-hydroxyethyl)amino)methyl)-5-((3′-(7-(((2-hydroxyethyl)amino)methyl)-4-oxoquinazolin-3(4H)-yl)-2-methyl-[1,1′-biphenyl]-3-yl)methoxy)phenoxy)methyl)nicotinonitrile] gave an IC50 of 150 nM.

`Cc1c(COc2cc(OCc3cncc(C#N)c3)c(CNCCO)cc2Cl)cccc1-c1cccc(-n2cnc3cc(CNCCO)ccc3c2=O)c1C` [Example 6, 5-((4-Chloro-2-(((2-hydroxyethyl)amino)methyl)-5-((3′-(7-(((2-hydroxyethyl)amino)methyl)-4-oxoquinazolin-3(4H)-yl)-2,2′-dimethyl-[1,1′-biphenyl]-3-yl)methoxy)phenoxy)methyl)nicotinonitrile] yielded a concentration for half-maximal inhibition (IC50) of 44 nM.

Compound `Cc1c(COc2cc(OCc3cncc(C#N)c3)c(CN[C@@](C)(CO)C(=O)O)cc2Cl)cccc1-c1cccc(-c2ccn3c(=O)c(CN[C@@](C)(CO)C(=O)O)cnc3c2)c1C` [Example 7, (S)-2-(((8-(3′-((4-((((S)-2-Carboxy-1-hydroxypropan-2-yl)amino)methyl)-2-chloro-5-((5-cyanopyridin-3-yl)methoxy)phenoxy)methyl)-2,2′-dimethyl-[1,1′-biphenyl]-3-yl)-4-oxo-4H-pyrido[1,2-a]pyrimidin-3-yl)methyl)amino)-3-hydroxy-2-methylpropanoic acid] came in with an IC50 of 0.2 nM.

Take `Cc1c(COc2cc(OCc3cncc(C#N)c3)c(CNCCO)cc2Cl)cccc1-c1cccc(-c2ccc3c(c2)C(=O)N(C)CC(=O)N3CCNCCO)c1C` [Example 8, 5-((4-Chloro-5-((3′-(1-(2-((2-hydroxyethyl)amino)ethyl)-4-methyl-2,5-dioxo-2,3,4,5-tetrahydro-1H-benzo[e][1,4]diazepin-7-yl)-2,2′-dimethyl-[1,1′-biphenyl]-3-yl)methoxy)-2-(((2-hydroxyethyl)amino)methyl)phenoxy)methyl)nicotinonitrile]: the IC50 was found to be 0.8 nM.
